According to ChEMBL document CHEMBL1201862, “PubChem BioAssay data set” (2004):
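Results reflect a 48-hour exposure of cells in 96-well plates to compound at five concentrations. Abbreviation: GI50, concentration required for 50% inhibition of growth.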 The source made the active and inactive calls. Cut-off read from the data, not from the text of the source: active = GI50 up to about 1.1 µM and inactive = higher.

How the values were obtained:
Experiment in all cases: NCI-60 cell line screen, 48 h
Hs-578T = system: Hs-578T
HCT-15 = system: HCT-15
PC-3 = system: PC-3
SNB-19 = system: SNB-19
NCI-H23 = system: NCI-H23
EKVX = system: EKVX
U-251 = system: U-251
SN12C = system: SN12C
K562 = system: K562
SR = system: SR
T47D = system: T47D
DU-145 = system: DU-145
UO-31 = system: UO-31
HCT-116 = system: HCT-116
SF-295 = system: SF-295
MDA-MB-435 = system: MDA-MB-435
MOLT-4 = system: MOLT-4
SNB-75 = system: SNB-75
SK-MEL-5 = system: SK-MEL-5
NCI/ADR-RES = system: NCI/ADR-RES
MCF7 = system: MCF7
NCI-H226 = system: NCI-H226
M14 = system: M14
MDA-N = system: MDA-N
SK-MEL-2 = system: SK-MEL-2
OVCAR-4 = system: OVCAR-4
SK-MEL-28 = system: SK-MEL-28
SK-OV-3 = system: SK-OV-3
SF-268 = system: SF-268
ACHN = system: ACHN
HT-29 = system: HT-29
A549 = system: A549
COLO 205 = system: COLO 205
UACC-257 = system: UACC-257
A498 = system: A498
BT-549 = system: BT-549
LOX IMVI = system: LOX IMVI
HOP-92 = system: HOP-92
CAKI-1 = system: CAKI-1
OVCAR-5 = system: OVCAR-5
UACC-62 = system: UACC-62
MDA-MB-231 = system: MDA-MB-231
Malme-3M = system: Malme-3M
HOP-62 = system: HOP-62
NCI-H522 = system: NCI-H522
KM12 = system: KM12
OVCAR-8 = system: OVCAR-8
TK-10 = system: TK-10
SF-539 = system: SF-539
CCRF-CEM = system: CCRF-CEM
NCI-H460 = system: NCI-H460
OVCAR-3 = system: OVCAR-3
HCC 2998 = system: HCC 2998
HL-60 = system: HL-60
786-0 = system: 786-0
RXF 393 = system: RXF 393
SW-620 = system: SW-620
IGROV-1 = system: IGROV-1

Cc1ccc2c3c1[C@@H]1O[C@@H]1c1cccc(c1-3)[C@@H]1O[C@H]21
GI50 (Hs-578T): 21.3 µM (inactive)
GI50 (HCT-15): 15.3 µM
GI50 (PC-3): 15 µM (inactive)
GI50 (SNB-19): 19.8 µM (inactive)
GI50 (NCI-H23): 15.1 µM (inactive)
GI50 (EKVX): 16.1 µM (inactive)
GI50 (U-251): 11.9 µM (inactive)
GI50 (SN12C): 11.1 µM (inactive)
GI50 (K562): 4.29 µM (inactive)
GI50 (SR): 11.5 µM (inactive)
GI50 (T47D): 3.08 µM (inactive)
GI50 (DU-145): 11 µM (inactive)
GI50 (UO-31): 12 µM (inactive)
GI50 (HCT-116): 5.24 µM (inactive)
GI50 (SF-295): 15.8 µM (inactive)
GI50 (MDA-MB-435): 14.1 µM (inactive)
GI50 (MOLT-4): 3.96 µM (inactive)
GI50 (SNB-75): 2.38 µM (inactive)
GI50 (SK-MEL-5): 15 µM (inactive)
GI50 (NCI/ADR-RES): 18.2 µM (inactive)
GI50 (MCF7): 4.66 µM (inactive)
GI50 (NCI-H226): 28.2 µM (inactive)
GI50 (M14): 11 µM (inactive)
GI50 (MDA-N): 14.4 µM (inactive)
GI50 (SK-MEL-2): 16.1 µM (inactive)
GI50 (OVCAR-4): 17.5 µM (inactive)
GI50 (SK-MEL-28): 10.2 µM (inactive)
GI50 (SK-OV-3): 26.7 µM (inactive)
GI50 (SF-268): 12.8 µM (inactive)
GI50 (ACHN): 12.7 µM (inactive)
GI50 (HT-29): 6.07 µM (inactive)
GI50 (A549): 15.9 µM (inactive)
GI50 (COLO 205): 15.8 µM (inactive)
GI50 (UACC-257): 15.9 µM (inactive)
GI50 (A498): 19.1 µM (inactive)
GI50 (BT-549): 17.9 µM (inactive)
GI50 (LOX IMVI): 2.4 µM (inactive)
GI50 (HOP-92): 18.1 µM (inactive)
GI50 (CAKI-1): 16.4 µM (inactive)
GI50 (OVCAR-5): 18.1 µM (inactive)
GI50 (UACC-62): 20 µM (inactive)
GI50 (MDA-MB-231): 18 µM (inactive)
GI50 (Malme-3M): 15.3 µM (inactive)
GI50 (HOP-62): 15.7 µM (inactive)
GI50 (NCI-H522): 12.2 µM (inactive)
GI50 (KM12): 12.4 µM (inactive)
GI50 (OVCAR-8): 11.5 µM (inactive)
GI50 (TK-10): 18.2 µM (inactive)

COC(=O)C12C3C4(C(=O)OC)C1C1(C(=O)OC)C2C3(C(=O)OC)C41C(=O)N(C(C)C)C(C)C (stereo not drawn)
GI50 (Hs-578T): > 100 µM (inactive)
GI50 (HCT-15): > 100 µM
GI50 (PC-3): > 100 µM (inactive)
GI50 (SNB-19): > 100 µM (inactive)
GI50 (NCI-H23): > 100 µM (inactive)
GI50 (EKVX): > 100 µM (inactive)
GI50 (U-251): > 100 µM (inactive)
GI50 (SN12C): > 100 µM (inactive)
GI50 (SF-539): > 100 µM (inactive)
GI50 (CCRF-CEM): > 100 µM (inactive)
GI50 (K562): > 100 µM (inactive)
GI50 (SR): > 100 µM (inactive)
GI50 (NCI-H460): > 100 µM (inactive)
GI50 (OVCAR-3): > 100 µM (inactive)
GI50 (T47D): > 100 µM (inactive)
GI50 (DU-145): > 100 µM (inactive)
GI50 (UO-31): > 100 µM (inactive)
GI50 (HCC 2998): > 100 µM (inactive)
GI50 (HCT-116): > 100 µM (inactive)
GI50 (HL-60): > 100 µM (inactive)
GI50 (SF-295): > 100 µM (inactive)
GI50 (MDA-MB-435): > 100 µM (inactive)
GI50 (MOLT-4): > 100 µM (inactive)
GI50 (SNB-75): > 100 µM (inactive)
GI50 (SK-MEL-5): > 100 µM (inactive)
GI50 (NCI/ADR-RES): > 100 µM (inactive)
GI50 (MCF7): > 100 µM (inactive)
GI50 (M14): > 100 µM (inactive)
GI50 (MDA-N): > 100 µM (inactive)
GI50 (SK-MEL-2): > 100 µM (inactive)
GI50 (OVCAR-4): > 100 µM (inactive)
GI50 (786-0): > 100 µM (inactive)
GI50 (RXF 393): > 100 µM (inactive)
GI50 (SK-MEL-28): > 100 µM (inactive)
GI50 (SF-268): > 100 µM (inactive)
GI50 (ACHN): > 100 µM (inactive)
GI50 (HT-29): > 100 µM (inactive)
GI50 (A549): > 100 µM (inactive)
GI50 (COLO 205): > 100 µM (inactive)
GI50 (UACC-257): > 100 µM (inactive)
GI50 (SW-620): > 100 µM (inactive)
GI50 (A498): > 100 µM (inactive)
GI50 (BT-549): > 100 µM (inactive)
GI50 (LOX IMVI): > 100 µM (inactive)
GI50 (HOP-92): > 100 µM (inactive)
GI50 (CAKI-1): > 100 µM (inactive)
GI50 (OVCAR-5): > 100 µM (inactive)
GI50 (UACC-62): > 100 µM (inactive)
GI50 (MDA-MB-231): > 100 µM (inactive)
GI50 (HOP-62): > 100 µM (inactive)
GI50 (NCI-H522): > 100 µM (inactive)
GI50 (IGROV-1): > 100 µM (inactive)
GI50 (KM12): > 100 µM (inactive)
GI50 (OVCAR-8): > 100 µM (inactive)
GI50 (TK-10): > 100 µM (inactive)
